Experimental data taken from US20100160443A1, “COMPOUNDS USEFUL FOR TREATING NEUROLOGICAL DISORDERS” (Yissum Research Development Company of The Hebrew …, priority 2003, published 2010).
Entries after “also recorded” stand apart in the source; their conditions may differ. Like-named read-outs stand apart in the source and are kept apart here. Marks after values point to notes of the source that are not given here.

Tests used:
[1] = system: maximal electroshock (MES) test; details: rat, cited from earlier work
[2] = system: tactile allodynia in rats with SNL neuropathy; details: i.p., rat; literature data (footnoted); cited from earlier work
[3] = cited from earlier work
[4] = system: tactile allodynia in rats with SNL neuropathy; assay: Tactile allodynia (von Frey filaments) in the spinal nerve ligation (SNL) model of neuropathic pain; format: in vivo, rat; details: for ED50: Rattus norvegicus, 1 h, read-out: ED50 (tactile allodynia threshold)
Description: The effect on neuropathic pain (tactile allodynia) was measured 5-6 days following operation as disclosed above. Rats responding to mechanical stimuli of 10 g or less (in the operated leg) were eligible for the study and were included in the drug administration regime.
Briefly, under ketamine-xylazine anesthesia the rat was placed in a prone position and the left paraspinal muscles were separated from spinous processes at the L4-S2 level. Part of the L6 transverse process was removed and the L4-L6 spinal nerves were identified. The L5-L6 spinal nerves were isolated and tightly ligated and cut, distal to the dorsal root ganglion and proximal to the formation of the sciatic nerve. Following complete homeostasis the wound was sutured.
A volume of 4 ml/kg (volume of injected suspension/rat body weight) was then injected to the rats. […] The three drugs and the control vehicle were administered i.p. (intraperitoneally) to rats at postoperative days 7, 14 and 21 in a double blind randomized crossover manner.
The rat was placed on a metal mesh floor covered with a transparent plastic dome, a period of acclimatization was allowed prior to testing. VFFs were applied from underneath the mesh floor to the plantar surface of the foot. Each trial consisted of repeated applications of each of the VFFs in an ascending order for 5 times, each for a period of 1 second. testing between two consecutive ascending VFFs was separated by period of 2 min. If the rat withdrew the foot at least 3 times out of 5 at a specific VFF no further ascending filaments were tested and this filament was considered as a withdrawal threshold (response). Mechanical stimulus trials with the series of ascending VFF were repeated 2 times for a given time point. The repeated measurements were averaged and taken as the paw withdrawal threshold on a given time point.
The absolute threshold and the difference in the allodynic threshold (time point minus baseline) values were tested using Mann-Whitney Test and Kruskal-Wallis Nonparametric test (two tailed) followed by Dunn's Multiple comparison test. The ED50 (median effective dose) was calculated by using Probit analysis method.
Briefly, under ketamine-xylazine anesthesia (85 mg kg^−1, i.p and 13 mg kg^−1, i.p, respectively) rats were placed in a prone position and paraspinal muscles on the left were separated from the L4-S2 spinous processes. Part of the L6 transverse process was removed and the underlying L4-L6 spinal nerves were identified. The L5 and L6 spinal nerves were isolated, tightly ligated with 5-0 silk, and cut just distal to the ligature. The ligature was approximately 8 mm distal to the corresponding dorsal root ganglion (DRG). Following complete homeostasis the wound was sutured in layers, the skin closed with Michel clips, topical bacteriostatic power was applied, and 20000 units of duplo-penicillin was injected intramuscularly (i.m.).
We used a set of 9 nylon von Frey monofilaments (VFF, Semmes-Weinstein monofilaments, Stoelting, Wood Dale, Ill., USA) to quantify foot withdrawal in response to normally innocuous tactile stimuli. […] Forces were calibrated by lowering filaments onto the pan of an electronic balance until they just bent.
Rats were placed on a raised wire mesh screen (gaps 4 mm×4 mm), which allowed access to the plantar surface of the hindpaw from below. They were covered with a transparent plastic dome, 13 cm high, which prevented rearing on the hindlimbs. A period of 20 min was allowed for acclimation prior to sensory testing. The mid-plantar hindpaw skin just caudal to the footpads, half way between medial and lateral edges of the foot, was subjected to a series of 5 brief probes, spaced at about 1 s. Each such stimulus was sufficient to just bend the filament. Testing began with the filament with the weakest initial bending force (0.6 g). […] Response threshold was the bending force of the first monofilament in the series that evoked a criterion ≧⅗ responses.

[5] = system: neural tube defects (NTDs); details: cited from earlier work
[6] = system: maximal electroshock (MES) test; assay: Anticonvulsant activity, maximal electroshock (MES) test; format: in vivo; details: different study, data not shown
Source text: Pain 73, 223-230); Blom, 1962 (BLOM, S. (1962). Trigeminal neuralgia: its treatment with a new anticonvulsant drug. Lancet; 1, 839-840); Rogawski & Loscher, 2004b (ROGAWSKI, M. A., & LOSCHER, W. (2004b). The neurobiology of antiepileptic drugs for the treatment of nonepileptic conditions. Nat. Med., 10, 685-692)). The availability of ED50 data for a series of new anticonvulsant isomers and analogues of VPD (valpromide) provides an opportunity for testing this hypothesis. […] Philadelphia: Lippincott Williams & Wilkins)).

[7] = system: motor performance (rotarod test); assay: Neurological motor dysfunction tests (accelerating rotarod, observation for sedation)
Description: On the day of testing, a baseline response was obtained, and rats were subsequently administered drug or vehicle. […] In addition, we examined our rats individually for signs of motor dysfunction and sedation as assessed by posture and gate during spontaneous and induced movement, grooming, chewing, stepping reflex, and startle reflex evoked by tapping on the cage.
For each drug and dose, attenuation of tactile allodynia (threshold measured in g) was measured. […] These areas under the response curve values for every group of rats per dose were evaluated against vehicle treatment using the nonparametric Wilcoxon one tailed test (dose of drug tested vs. vehicle on the same treatment). […] A p value <0.05 was considered statistically significant.

[8] = p.o., taken from previous studies
[9] = i.p., rat, 60 min post injection, DID at 120 min

In the case of `NC(=O)N1c2ccccc2C=Cc2ccccc21` [CBZ, carbamazepine], the MES-ED50 [1, 8] is listed as 5.4^a mg kg^−1, the SNL-ED50 [2] is listed as >30^c mg kg^−1 and the Brain-to-plasma ratio ([3]; literature data) is listed as 1.0^i.

For `CC(C)C(C(=O)O)C(C)C` [DIA, diisopropylacetic acid], the “antiallodynic effect / effectiveness for treating neuropathic pain” value (shortened to “antiallodynic effect / effectiveness”) ([4]; rat, in vivo) was “effective for treating neuropathic pain”, the SNL-ED50 ([4]; rat, in vivo, ip) was >300 mg/kg and the “lowest effective dose (significant increase of the allodynic threshold vs vehicle)” value ([4]; rat, in vivo, ip) was 300 mg/kg. The “rats regarded as protected at the highest dose” value ([4]; rat, in vivo, ip) was 25%.

For `NC(=O)OCC(COC(N)=O)c1ccccc1` [FBM, felbamate], the MES-ED50 [1, 8] is given as 25.3^a mg kg^−1, the SNL-ED50 [2] is given as >600^d mg kg^−1 and the Brain-to-plasma ratio ([3]; literature data) is given as 0.64^f.

In the case of `NCC1(CC(=O)O)CCCCC1` [GBP, gabapentin], the MES-ED50 ([1]; in vivo, po) is listed as 14.8^a mg kg^−1, the SNL-ED50 [2] is listed as 34^d mg kg^−1 and the Brain-to-plasma ratio ([3]; rat, in vivo) is listed as 0.85^e.

In the case of `Nc1nnc(-c2cccc(Cl)c2Cl)c(N)n1` [LTG, lamotrigine], the MES-ED50 [1, 8] is listed as 1.3^a mg kg^−1, the SNL-ED50 [2] is listed as >100^d mg kg^−1 and the Brain-to-plasma ratio ([3]; literature data) is listed as 0.4^h.

With `CNC(=O)C1C(C)(C)C1(C)C` [M-TMCD, N-methyl-2,2,3,3-tetramethylcyclopropanecarboxamide] the ED50 ([4]; ip) was 41 mg/kg, the “antiallodynic effect / effectiveness” value ([4]; rat, in vivo) was “effective for treating neuropathic pain” and the “dose dependence of the antiallodynic effect” value (“dose dependence” below) ([4]; rat, in vivo, ip) was “in a dose dependent manner”. The “time of maximal effect after administration” value (shortened to “time of maximal effect”) ([4]; rat, in vivo, ip) was 60 min and the teratogenicity ([5]; in vivo) was “lack of teratogenicity”.

For `CCCC(CCC)C(=O)NC` [MVPD, N-methyl-valpromide, reference compound], the MES-ED50 [1, 8] is listed as 65 mg/kg and the SNL-ED50 [4, 9] is listed as >120 mg/kg.

In the case of `CC1(C)C(C(=O)O)C1(C)C` [TMCA, 2,2,3,3-tetramethylcyclopropanecarboxylic acid], the “anticonvulsant activity in the rat-MES test” value [6] is reported as “without any anticonvulsant activity” and the “antiallodynic effect / effectiveness” value ([4]; SNL model, rat) is reported as “exhibit antiallodynic effect”.

With `CC1(C)C(C(N)=O)C1(C)C` [TMCD, 2,2,3,3-tetramethylcyclopropanecarboxamide] the “anticonvulsant activity in the rat-MES test” value [6] was “without any anticonvulsant activity”, the ED50 ([4]; ip) was 84.5 mg/kg and the “antiallodynic effect / effectiveness” value ([4]; rat, in vivo) was “exhibit antiallodynic effect; also recorded: effective for treating neuropathic pain”. For the same compound, the “dose dependence” value ([4]; rat, in vivo, ip) was “in a dose dependent manner” and the “time of maximal effect” value ([4]; rat, in vivo, ip) was 60 min.

For `CCC(C)C(CC)C(=O)O` (stereo not shown) [VCA, 2-ethyl-3-methyl-pentanoic acid], the SNL-ED50 [4, 9] was >300 mg/kg.

For `CCC(C)C(CC)C(N)=O` (stereo not shown) [VCD, 2-ethyl-3-methyl-pentanoic acid amide], the “neurological motor dysfunction or sedation at the highest drug dose tested” value ([7]; highest drug dose tested, normal rats) is given as “not sufficient to cause neurological motor dysfunction or sedation”, the MES-ED50 [1, 8] is given as 29^c mg kg^−1 and the ED50 ([4]; ip) is given as 52.3 mg/kg. For the same compound, the “dose dependence” value ([4]; i.p., rat) was “in a dose dependent manner”, the “antiallodynic effect / effectiveness” value ([4]; rat, in vivo) was “effective for treating neuropathic pain” and the SNL-ED50 ([4]; rat, in vivo, ip) was 52 mg/kg. The “time of maximal effect” value ([4]; rat, in vivo, ip) was 60 min and the teratogenicity ([5]; literature) was “distinctly less teratogenic than VPA”.

For `CCCC(CCC)C(N)=O` [VPD, valpromide, reference compound], the “neurological motor dysfunction or sedation at the highest drug dose tested” value ([7]; rat, in vivo) is given as “not sufficient to cause neurological motor dysfunction or sedation”, the MES-ED50 [1, 8] is given as 32^b mg kg^−1 and the SNL-ED50 [4, 9] is given as 61 mg/kg. For the same compound, the Brain-to-plasma ratio ([3]; literature data) was 0.84^c.
